Data as given in paper PMC6753678, “Fueling Open Innovation for Malaria Transmission-Blocking Drugs: Hundreds of Molecules Targeting Early Parasite Mosquito Stages” (Frontiers in Microbiology, 2019).
Where two headings read alike, the source gives them in different places.

How the values were obtained:
[1] = test system: P. berghei ookinete development; settings: for % inhibition, Replicate A / % inhibition, Replicate B: primary screen at 1 μM
HepG2 cells = test: HepG2 cytotoxicity assay; settings: for IC50: read-out: HepG2 cytotoxicity assay IC50, dose response confirmation; for Pb ODA (this manuscript) HepG2 cytoxicity: HepG2 cytotoxicity listed with the Pb ODA data set (this manuscript)
In short: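 Cells at 2,500 per well in MEM with 10% fetal bovine serum and 1% NEAA were exposed to test compounds for 48 h at 37°C, 5% CO2. Viability was read by fluorescence, with percent inhibition calculated against 50 μM doxorubicin (positive) and DMSO (negative) controls.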

[2] = test system: 3D7-strain P. falciparum asexual parasites; test: P. falciparum asexual growth inhibition assay (Pf GIA); assay type: cell-based, Plasmodium falciparum; settings: dose response confirmation; read-out: Pf asexual growth inhibition assays IC50
In short: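 Steps: seed parasites (0.25% parasitemia, 2% hematocrit) onto compound dilutions; incubate 72 h at 37°C, 5% O2/5% CO2; freeze at −70°C and thaw; add LDH reaction mix, read A650 after 10 min. Percent growth inhibition derived from chloroquine and DMSO controls, averaged over three biological replicates.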

[3] = read-out: Pb ODA IC50, this manuscript
[4] = read-out: Pb Ookinete development assay IC50, dose response confirmation
[5] = HepG2 values of the three screens unified
[6] = read-out: Pb ODA (this manuscript) IC50, P. berghei ookinete development assay, this manuscript
[7] = unified HepG2 value across the three screens

Structure (SMILES) | Is compound selective in assay? Pb ODA active? ([1]; 1: YES, 0: NO) | % inhibition, Replicate A [1] [%] | % inhibition, Replicate B [1] [%] | IC50 [1, 3] [nM] | IC50 [1, 4] [nM] | HepG2 cytoxicity (Pb ODA, this manuscript) (HepG2 cells) [µM] | Unified cytotox (HepG2 cells; [5]) [µM] | IC50 (HepG2 cells) [nM] | IC50 [2] [nM] | Is compound selective in assay? Pb ODA active? [1] | IC50 [1, 6] [nM] | Pb ODA (this manuscript) HepG2 cytoxicity (HepG2 cells) [µM] | Unified cytotox (HepG2 cells; [7]) [µM]
CC(C)N1CCN(CCCNc2c3ccccc3nc3ccccc23)CC1.Cl [TCMDC-137547] | 0 (0: NO) | 29.07 | 62.42 | 3710 | 3710 | 14.45 | 14.45 | 14400 | 518 | – | – | – | –
CCCN1CCN(CCNc2c3ccccc3nc3ccccc23)CC1 [TCMDC-137549] | 0 (0: NO) | 61.15 | 52.76 | 2010 | 2010 | 7.41 | 7.41 | 7410 | 965 | – | – | – | –
Cl.c1ccc(CN2CCN(CCNc3c4ccccc4nc4ccccc34)CC2)cc1 [TCMDC-137571] | 0 (0: NO) | 19.05 | 55.37 | 2890 | 2900 | 23.99 | 23.99 | 24000 | 446 | – | – | – | –
CC(C)N1CCN(CCCCNc2c3ccccc3nc3ccccc23)CC1.Cl [TCMDC-137573] | 0 (0: NO) | 42.86 | 78.36 | 2890 | 2890 | 5.75 | 5.75 | 5750 | 10 | – | – | – | –
CCCN1CCN(CCCCNc2c3ccccc3nc3ccccc23)CC1.Cl [TCMDC-137576] | 0 (0: NO) | 35.45 | 63.99 | 2330 | 2320 | 5.37 | 5.37 | 5370 | 238 | – | – | – | –
CCOC(=O)N1CCN(CCCCNc2c3ccc(Cl)cc3nc3ccc(OC)cc23)CC1.Cl [TCMDC-137579] | – | 26.46 | 54.23 | – | 4490 | – | – | 5500 | 30 | 0 (key: 1: YES; 0: NO) | 4490 | 5.50 | –
COc1ccc2nc3cc(Cl)ccc3c(NCCCN3CCNCC3)c2c1.Cl [TCMDC-137580] | – | 53.44 | 35.84 | – | 1680 | – | – | 14800 | 56 | 0 (key: 1: YES; 0: NO) | 1680 | 14.79 | –
Cc1nc2nc(N)nc(N)c2c(C)c1Cc1ccc(N)cc1.Cl [TCMDC-137633] | – | 2.48 | 52.30 | – | 6210 | – | – | 80 | 287 | 0 (key: 1: YES; 0: NO) | 6210 | 0.08 | –
COc1ccc2nc3cc(Cl)ccc3c(NCc3ccccc3)c2c1.Cl [TCMDC-137663] | – | 39.90 | 59.60 | – | 1630 | – | – | 41700 | 424 | 1 (key: 1: YES; 0: NO) | 1630 | 41.69 | –
Cc1nc2nc(N)nc(N)c2c(C)c1Cc1ccccc1.Cl [TCMDC-137670] | – | 51.61 | 57.72 | – | 3020 | – | – | 30 | 169 | 0 (key: 1: YES; 0: NO) | 3020 | 0.03 | –
Nc1nc(N)c2c(ccc3c2ncn3Cc2ccccc2)n1 [TCMDC-137749] | 0 (0: NO) | 48.44 | 74.97 | 4450 | 4450 | – | – | 1150 | 244 | – | – | – | 1.15
CCC1=C[C@@H]2CN(C1)Cc1c([nH]c3ccccc13)[C@@](C(=O)OC)(c1cc3c(cc1OC)N(C)[C@H]1[C@@](O)(C(=O)OC)[C@H](O)[C@]4(CC)C=CCN5CC[C@]31[C@@H]54)C2.O=S(=O)(O)O [TCMDC-137769] | 1 (1: YES) | 141.80 | 104.79 | 360 | 365 | – | – | 41200 | 213 | – | – | – | 41.21
Nc1nc(N)c2c(ccc3c2ccn3Cc2ccc3c(c2)OCO3)n1 [TCMDC-137808] | 0 (0: NO) | 57.79 | 75.32 | 450 | 447 | 0.0324 | 0.0324 | 32.4 | < 0.2 | – | – | – | –
COc1cccc(Cn2ccc3c4c(N)nc(N)nc4ccc32)c1 [TCMDC-137811] | 0 (0: NO) | 65.46 | 68.96 | 1560 | 1560 | 0.0129 | 0.0129 | 12.9 | < 0.2 | – | – | – | –
Cc1ccccc1Cn1ccc2c3c(N)nc(N)nc3ccc21 [TCMDC-137812] | 0 (0: NO) | 41.40 | 62.61 | 430 | 429 | 0.00828 | 0.00828 | 8.28 | < 0.3 | – | – | – | –
CCN(C)C(=O)n1ncc2c3c(N)nc(N)nc3ccc21 [TCMDC-137828] | – | 30.59 | 54.76 | – | 2560 | – | – | 220 | 86 | 0 (key: 1: YES; 0: NO) | 2560 | 0.22 | –
CCC(C)(C)c1ccc2nc(N)nc(N)c2c1C [TCMDC-137829] | 0 (0: NO) | 40.64 | 76.04 | 3100 | 3100 | – | – | 1.7 | 1.07 | – | – | – | 0.0017
CCc1cc2c3c(N)nc(N)nc3ccc2n1CC [TCMDC-137851] | 0 (0: NO) | 53.59 | 40.48 | 990 | 986 | 0.0224 | 0.0224 | 22.4 | 2.53 | – | – | – | –
Cl.Nc1nc(N)c2c(ccc3c2cnn3S(=O)(=O)N2CCCC2)n1 [TCMDC-137852] | – | 40.87 | 51.00 | – | 1530 | – | – | 4.12 | 3.8 | 0 (key: 1: YES; 0: NO) | – | 0.00412 | –
